Test results taken from patent EP0019589A1, “Tripeptide derivatives and their use in a process for determining enzymes” (Pentapharm A.G., priority 1979, dated 1980).
Non-standard residues stand in square brackets, D forms with d. Residues, ends and D or L forms follow the SMILES beside them. *: point of attachment. Cha = N[C@@H](CC1CCCCC1)C(=O)O; dCha = N[C@H](CC1CCCCC1)C(=O)O; dChg = N[C@@H](C(=O)O)C1CCCCC1; dPhg = N[C@@H](C(=O)O)c1ccccc1; pNA = O=[N+]([O-])c1ccc(N*)cc1; dNle = CCCC[C@@H](N)C(=O)O; dNva = CCC[C@@H](N)C(=O)O; dAbu = CC[C@@H](N)C(=O)O

Legend:
Type in all cases: biochemical
Humanplasmin = target: T1, Humanplasmin (Homo sapiens, UniProt P00747); assay: Cleavage of chromogenic substrate by human plasmin; conditions: 1 CU-Einheit human plasmin, per min; Substratkonzentration 2 x 10^-4 molar
T1 construct: da bei der Aktivierung aus 1 Molekül Plasminogen 1 Molekül Plasmin entsteht
T1 sequence (P00747 581-810 limits assumed): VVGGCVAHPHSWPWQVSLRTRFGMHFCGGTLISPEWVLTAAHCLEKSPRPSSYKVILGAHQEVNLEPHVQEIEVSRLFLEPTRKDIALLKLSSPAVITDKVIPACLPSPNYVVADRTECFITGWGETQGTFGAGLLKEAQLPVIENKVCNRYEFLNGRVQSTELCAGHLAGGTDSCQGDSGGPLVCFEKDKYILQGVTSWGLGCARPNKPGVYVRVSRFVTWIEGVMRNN
T1 sequence (P00747 97-580 partner limits assumed): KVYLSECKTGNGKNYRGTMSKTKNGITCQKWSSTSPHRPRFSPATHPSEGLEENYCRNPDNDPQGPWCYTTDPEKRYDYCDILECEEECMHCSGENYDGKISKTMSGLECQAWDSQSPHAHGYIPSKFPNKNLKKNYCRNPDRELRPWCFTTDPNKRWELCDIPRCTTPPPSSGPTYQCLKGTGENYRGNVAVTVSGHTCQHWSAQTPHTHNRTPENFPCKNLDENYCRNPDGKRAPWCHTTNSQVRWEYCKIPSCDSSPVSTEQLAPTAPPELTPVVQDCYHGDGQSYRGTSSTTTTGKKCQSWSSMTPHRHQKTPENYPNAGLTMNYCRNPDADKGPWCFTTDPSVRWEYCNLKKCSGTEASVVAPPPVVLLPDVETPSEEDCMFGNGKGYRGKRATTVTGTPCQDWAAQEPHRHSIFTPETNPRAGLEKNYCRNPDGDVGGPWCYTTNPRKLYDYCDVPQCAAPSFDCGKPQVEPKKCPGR

Urinkallikrein = target: T2, Urinkallikrein (Homo sapiens, UniProt P06870); assay: Cleavage of chromogenic substrate by urinary kallikrein in human urine; conditions: 1 ml human urine (pooled morning urine of healthy persons), per min; Substratkonzentration 2 x 10^-4 molar
T2 construct: 1 ml Urin und 1 ml TRIS-Imidazol-Puffer mit pH 7,9; from tissue; host or cells: human urine
T2 sequence (P06870 25-262): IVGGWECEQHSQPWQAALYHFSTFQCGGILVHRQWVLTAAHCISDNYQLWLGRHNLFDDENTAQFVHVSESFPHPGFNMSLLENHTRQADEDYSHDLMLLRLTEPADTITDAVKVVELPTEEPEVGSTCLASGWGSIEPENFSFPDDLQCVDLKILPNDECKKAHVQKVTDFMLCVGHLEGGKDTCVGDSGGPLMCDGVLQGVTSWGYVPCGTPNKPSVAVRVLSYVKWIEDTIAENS

Humanthrombin = target: T3, Humanthrombin (Homo sapiens, UniProt P00734); assay: Cleavage of chromogenic substrate by human NIH thrombin; conditions: 1 NIH-Einheit human thrombin, per min; Substratkonzentration 2 x 10^-4 molar
T3 construct: Humanplasmin und hu-manem NIH-Thrombin
Procedure, shortened: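 Thrombin hydrolysis of chromogenic p-nitroanilide substrate read spectrophotometrically at 405 nm; fluorogenic naphthylamine, methylcoumarylamine or di(methoxycarbonyl)phenylamine substrates read continuously by fluorescence emission at 400-470 nm. Activity taken as product formed per unit time; 1 µmol product/min defined as 1 enzyme unit for a given substrate.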

[1] = target: T4, Submandibularis-Kallikrein (Homo sapiens, UniProt P06870); assay: Cleavage of chromogenic substrate by submandibular (glandular) kallikrein in human sputum; conditions: 1 ml human sputum, per min; Substratkonzentration 2 x 10^-4 molar
T4 construct: Man mischt 0,5 ml Sputum mit 2 ml TRIS-Imidazol-Puffer; from tissue; host or cells: human sputum
T4 sequence (P06870 25-262): as above
Procedure, shortened: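 Sputum mixed with TRIS-imidazole buffer (ionic strength 1.0), preincubated 5 min at 37°C and centrifuged; supernatant incubated with aqueous substrate solution (2 x 10^-3 M, stock). p-Nitroaniline release followed continuously at 405 nm for 5-10 min; activity expressed as mU per ml sputum from ΔOD/min.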

| Structure (SMILES) | Menge des durch 1 CU-Einheit Humanplasmin pro Min. freigesetzten Spaltproduktes R-NH2 in Nanomol (Humanplasmin) (Humanplasmin) [Nanomol] | Menge des durch 1 ml Humanurin pro Min. freigesetzten Spaltproduktes R-NH2 in Nanomol (Urinkallikrein) (Urinkallikrein) | Menge des durch 1 NIH-Einheit Thrombin pro Min. freigesetzten Spaltproduktes R-NH2 in Nanomol (Humanthrombin) (Humanthrombin) | Menge des durch 1 ml Humansputum pro Min. freigesetzten Spaltproduktes R-NH2 in Nanomol (Submandibularis-Kallikrein) [1] |
| --- | --- | --- | --- | --- |
| CC(C)[C@@H](N)C(=O)N[C@@H](CC1CCC(O)CC1)C(=O)N[C@@H](CCCCN)C(=O)Nc1ccc([N+](=O)[O-])cc1 (stereo partly drawn) [Beispiel 34, 2AcOH.H-D-Val-CHT-Lys-pNA] | 532 | 1,40 Nanomol | 0,4 Nanomol | 16,5 Nanomol |
| NCCCC[C@H](NC(=O)[C@H](CC1CCC(O)CC1)NC(=O)[C@H](N)c1ccccc1)C(=O)Nc1ccc([N+](=O)[O-])cc1 (stereo partly drawn) [Beispiel 35, 2AcOH.H-D-Ph'Gly-CHT-Lys-pNA] | 894 | 0,10 Nanomol | 0,5 Nanomol | 0,9 Nanomol |
| CC(C)C[C@@H](N)C(=O)N[C@@H](CC1CCCCC1)C(=O)N[C@@H](CCCNC(=N)N)C(=O)Nc1ccc([N+](=O)[O-])cc1 [Beispiel 36, 2HBr.H-D-Leu-CHA-Arg-pNA] (H-[dL]-[Cha]-Arg-pNA) | 1069 | 3,11 Nanomol | 6,8 Nanomol | 35,9 Nanomol |
| CCCC[C@@H](N)C(=O)N[C@@H](CC1CCCCC1)C(=O)N[C@@H](CCCNC(=N)N)C(=O)Nc1ccc([N+](=O)[O-])cc1 [Beispiel 37, 2HBr.H-D-Nleu-CHA-Arg-pNA] (H-[dNle]-[Cha]-Arg-pNA) | 1179 | 2,08 Nanomol | 7,3 Nanomol | 28,1 Nanomol |
| CCC[C@@H](N)C(=O)N[C@@H](CC1CCCCC1)C(=O)N[C@@H](CCCNC(=N)N)C(=O)Nc1ccc([N+](=O)[O-])cc1 [Beispiel 38, 2HBr.H-D-Nval-CHA-Arg-pNA] (H-[dNva]-[Cha]-Arg-pNA) | 969 | 3,12 Nanomol | 5,1 Nanomol | 41,3 Nanomol |
| N=C(N)NCCC[C@H](NC(=O)[C@H](CC1CCCCC1)NC(=O)[C@H](N)Cc1ccccc1)C(=O)Nc1ccc([N+](=O)[O-])cc1 [Beispiel 39, 2HBr.H-D-Phe-CHA-Arg-pNA] (H-[dF]-[Cha]-Arg-pNA) | 814 | 2,14 Nanomol | 3,9 Nanomol | 28,5 Nanomol |
| C[C@@H](N)C(=O)N[C@@H](CC1CCCCC1)C(=O)N[C@@H](CCCNC(=N)N)C(=O)Nc1ccc([N+](=O)[O-])cc1 [Beispiel 40, 2HBr.H-D-Ala-CHA-Arg-pNA] (H-[dA]-[Cha]-Arg-pNA) | 433 | 1,73 Nanomol | 1,5 Nanomol | 22,4 Nanomol |
| CC[C@@H](N)C(=O)N[C@@H](CC1CCCCC1)C(=O)N[C@@H](CCCNC(=N)N)C(=O)Nc1ccc([N+](=O)[O-])cc1 [Beispiel 41, 2HBr.H-D-But-CHA-Arg-pNA] (H-[dAbu]-[Cha]-Arg-pNA) | 623 | 2,99 Nanomol | 2,8 Nanomol | 31,2 Nanomol |
| N=C(N)NCCC[C@H](NC(=O)[C@H](Cc1ccc(O)cc1)NC(=O)[C@H](N)C1CCCCC1)C(=O)Nc1ccc([N+](=O)[O-])cc1 [Beispiel 42, 2HBr.H-D-CHG-Tyr-Arg-pNA] (H-[dChg]-Tyr-Arg-pNA) | 969 | 0,49 Nanomol | 2,0 Nanomol | 3,9 Nanomol |
| N=C(N)NCCC[C@H](NC(=O)[C@H](Cc1ccc(O)cc1)NC(=O)[C@H](N)CC1CCCCC1)C(=O)Nc1ccc([N+](=O)[O-])cc1 [Beispiel 43, 2HBr.H-D-CHA-Tyr-Arg-pNA] (H-[dCha]-Tyr-Arg-pNA) | 1407 | 0,49 Nanomol | 8,3 Nanomol | 5,2 Nanomol |
| CCC[C@@H](N)C(=O)N[C@@H](Cc1ccc(O)cc1)C(=O)N[C@@H](CCCNC(=N)N)C(=O)Nc1ccc([N+](=O)[O-])cc1 [Beispiel 44, 2HBr.H-D-Nval-Tyr-Arg-pNA] (H-[dNva]-Tyr-Arg-pNA) | 1219 | 0,42 Nanomol | 1,8 Nanomol | 4,9 Nanomol |
| N=C(N)NCCC[C@H](NC(=O)[C@H](Cc1ccc(O)cc1)NC(=O)[C@H](N)Cc1ccccc1)C(=O)Nc1ccc([N+](=O)[O-])cc1 [Beispiel 46, 2HBr.H-D-Phe-Tyr-Arg-pNA] (H-[dF]-Tyr-Arg-pNA) | 843 | 0,26 Nanomol | 2,6 Nanomol | 6,1 Nanomol |
| N=C(N)NCCC[C@H](NC(=O)[C@H](Cc1ccc(O)cc1)NC(=O)[C@H](N)c1ccccc1)C(=O)Nc1ccc([N+](=O)[O-])cc1 [Beispiel 47, 2HBr.H-D-Ph'Gly-Tyr-Arg-pNA] (H-[dPhg]-Tyr-Arg-pNA) | 818 | 0,19 Nanomol | 1,0 Nanomol | 7,0 Nanomol |
| C[C@H](NC(=O)[C@H](N)C1CCCCC1)C(=O)N[C@@H](CCCNC(=N)N)C(=O)Nc1ccc([N+](=O)[O-])cc1 [Beispiel 48, 2HBr.H-D-CHG-Ala-Arg-pNA] (H-[dChg]-Ala-Arg-pNA) | 239 | 0,72 Nanomol | 158 Nanomol | 9,5 Nanomol |
| C[C@H](NC(=O)[C@H](N)CC1CCCCC1)C(=O)N[C@@H](CCCNC(=N)N)C(=O)Nc1ccc([N+](=O)[O-])cc1 [Beispiel 49, 2HBr.H-D-CHA-Ala-Arg-pNA] (H-[dCha]-Ala-Arg-pNA) | 389 | 0,66 Nanomol | 163,5 Nanomol | 10,6 Nanomol |
| CC(C)C[C@H](NC(=O)[C@H](N)Cc1ccccc1)C(=O)N[C@@H](CCCNC(=N)N)C(=O)Nc1ccc([N+](=O)[O-])cc1 [Beispiel 50, 2HBr.H-D-Phe-Leu-Arg-pNA] (H-[dF]-Leu-Arg-pNA) | 313 | 0,61 Nanomol | 14,4 Nanomol | 6,8 Nanomol |
| CC(C)C[C@H](NC(=O)[C@H](N)CC1CCC(O)CC1)C(=O)N[C@@H](CCCNC(=N)N)C(=O)Nc1ccc([N+](=O)[O-])cc1 (stereo partly drawn) [Beispiel 51, 2HBr.H-D-CHT-Leu-Arg-pNA] | 596 | 0,33 Nanomol | 58,1 Nanomol | 11,7 Nanomol |
